Experimental data from patent US20120136005A1, “E[…] THE TREATMENT OF ANXIETY” (MERZ PHARMA GmbH & CO. KGaA, priority 2009, published 2012).
Entries after “also recorded” stand apart in the source; their conditions may differ.

Test system: Sprague-Dawley rats
Test: Elevated plus maze
Format: in vivo
Settings: doses of 0.3125 and 1.25 mg/kg s.c.; FIG. 6
Procedure: For contextual fear conditioning, open field, fear potentiated startle and elevate plus maze, experimentally naive adult male Sprague-Dawley rats (250-300 g; Janvier, France) were housed in groups of four per cage. Colony room temperature and humidity were maintained respectively at 20±1° C. and 60±3%. Food and water were available ad libitum and the animals were kept under an alternating 12 h/12 h day-night cycle (lights on at 07.00) for at least 6 days before the experiments were started. All experiments were conducted during the light period of the day-night cycle. […]
The elevated plus maze, made from black polypropylene, consists of two open arms (50.8 cm×10.2 cm surrounded by 1.3 cm walls) and two enclosed arms (50.8×10.2 cm and 40.6 cm high walls), which extended form central platform (10.2×10.2 cm). […] Breaks of photo beam are recorded and analysed automatically using an IBM-PC running MED-PC software version IV (Med Associates). […] During the following 5 min period the number of entries into closed and open arms as well as time spent in each type of arm is recorded. An arm entry is recorded when all four paws entering the arm. The obtained results are expressed as mean±S.E.M. percent entries or percent time spent in open arms. […]
Percent of time spent in open arm are taken for statistical analysis. Data are analysed by one-way ANOVA followed by Dunnett's test.

## c1cc2c(c(N3CCNCC3)c1)OCCO2 [eltoprazine, 1-(2,3-dihydro-1,4-benzodioxin-5-yl)piperazine]
  time spent in the open arms of the elevated plus maze: reduced the time spent in the open arms; also recorded: anxiogenic-like effect
